Several values for one entry are separate records, joined by “and”; a condition that tells them apart may be missing. Equal entries are not always repeated. No end group written: not given here.
Assays:
[1] = test system: differentiated Caco-2 cell monolayers; test: Transepithelial transport and metabolism across differentiated Caco-2 cell monolayers; format: in vitro ADME, human; conditions: for detected at the AP side, P7 tested within a mixture: AP solutions of differentiated Caco-2 collected after 120 min; for amount in the BL compartment after 60 min, P7 in the mixture / absorbed amount after 2 h, P7 in the mixture / amount in the BL compartment after 60 min, peptide alone: HPLC–Chip–MS/MS; for rate of transport, peptide alone: AP pH 6.0 (MES), BL pH 7.4
Protocol: For differentiation, Caco-2 cells were seeded on polycarbonate filters with a 12 mm diameter and 0.4 μm pore diameter (Transwell, Corning, Inc., Lowell, MA, U.S.A.) at a 3.5 × 10^5 cells/cm^2 density in complete medium supplemented with 10% FBS in both AP and BL compartments for 2 days to allow for the formation of a confluent cell monolayer. Starting from day 3 after seeding, cells were transferred to FBS-free medium in both compartments, supplemented with ITS [final concentration of 10 mg/L insulin (I), 5.5 mg/L transferrin (T), and 6.7 μg/L sodium selenite (S), GIBCO–Invitrogen, San Giuliano Milanese, Italy] only in the BL compartment, and allowed to differentiate for 18–21 days with regular medium changes 3 times weekly.[12]
The transepithelial electrical resistance (TEER) of differentiated Caco-2 cells was measured at 37 °C using the voltmeter apparatus Millicell (Millipore Co., Billerica, MA, U.S.A.), immediately before and at the end of the transport experiments. In addition, at the end of transport experiments, cells were incubated from the AP side with 1 mM phenol red in phosphate-buffered saline (PBS) containing Ca^2+ (0.9 mM) and Mg^2+ (0.5 mM) for 1 h at 37 °C, to monitor the paracellular permeability of the cell monolayer. The BL solutions were then collected, and NaOH (70 μL, 0.1 N) was added before reading the absorbance at 560 nm by a microplate reader Synergy H1 from Biotek (Winooski, VT, U.S.A.). Phenol red passage was quantified using a standard phenol red curve. Only filters showing TEER values and phenol red passages similar to untreated control cells were considered for peptide transport analysis.
Prior to experiments, the cell monolayer integrity and differentiation were checked by TEER measurement as described in detail above. Cells were then washed twice, and peptide transportation by intestinal cells was assayed. Transport experiments were performed in transport buffer solution (137 mM NaCl, 5.36 mM KCl, 1.26 mM CaCl2, 1.1 mM MgCl2, and 5.5 mM glucose) following conditions previously described.[13] To reproduce the pH conditions existing in vivo in the small intestinal mucosa, AP solutions were maintained at pH 6.0 (buffered with 10 mM morpholinoethanesulfonic acid) and BL solutions were maintained at pH 7.4 (buffered with 10 mM N-2-hydroxyethylpiperazine-N-4-[…]). Prior to transport experiments, cells were washed twice with 500 μL of PBS containing Ca^2+ and Mg^2+. Peptide transportation by mature Caco-2 cells was assayed by loading the AP compartment with P7 and/or LTFPG (500 μM) in the AP transport solution (500 μL) and the BL compartment with the BL transport solution (700 μL). The plates were incubated at 37 °C, and the BL solutions were collected at different time points (i.e., 15, 30, 60, 90, and 120 min) and replaced with fresh solutions prewarmed at 37 °C. All BL solutions together with the AP solutions collected at the end of the transport experiment were stored at −80 °C prior to analysis. Three independent transport experiments were performed, each in duplicate.
Quantitative analysis of P7 in the AP and BL samples were carried out by ion trap mass spectrometry (MS) in multiple reaction monitoring (MRM) mode, monitoring two of the most intense diagnostic transitions, after optimization of the acquisition parameters, such as retention time, MS profile, and tandem mass spectrometry (MS/MS) fragmentation spectrum.[14],[15] All further details regarding liquid chromatography–tandem mass spectrometry (LC–MS/MS) operating conditions and method validations are described in the Supporting Information.
The metabolic degradation products deriving from the hydrolytic activity of brush border membrane peptidases were investigated by an untargeted approach (for further details, see the Supporting Information). […]

DPP-IV = DPP-IV (Homo sapiens, UniProt P27487); test: Stability of P7 in the presence of DPP-IV; format: in vitro ADME; conditions: P7 (500 μM) with purified recombinant DPP-IV, Tris–HCl pH 8.0, 37 °C, 5, 30 and 120 min; LC–MS MRM
Protocol: The experiments were carried out in microcentrifuge tubes. Each reaction (100 μL) was prepared by adding the reagents in the following order: 1× DPP-IV assay buffer [20 mM Tris–HCl at pH 8.0 containing 100 mM NaCl and 1 mM ethylenediaminetetraacetic acid (EDTA)] (80 μL), P7 solution (10 μL, 500 μM), and finally DPP-IV (10 μL). Subsequently, the samples were mixed and kept at 37 °C in a thermoblock for 5, 30, and 120 min. At the end of the reactions, DPP-IV was inactivated by adding 200 μL of precooled acetonitrile (ACN) to each tube; then the samples were centrifuged for 10 min at 13300g at 4 °C; and the supernatant was collected. P7 and LTFPG were loaded onto the enrichment column (Zorbax 300SB-C18, 5 μm pore size) at a flow rate of 4 μL/min using isocratic 100% C solvent phase (99% water, 1% ACN, and 0.1% formic acid). After the cleanup, P7 and LTFPG were separated on a 150 mm × 75 μm analytical column (Zorbax300SB-C18, 5 μm pore size) at the constant flow rate of 300 nL/min. The LC solvent A was 95% water, 5% ACN, and 0.1% formic acid; solvent B was 5% water, 95% ACN, and 0.1% formic acid. The nanopump gradient program was as follows: 5% solvent B (0 min), 70% solvent B (0–8 min), and back to 5% solvent B in 2 min. Post-time was 10 min. The drying gas temperature was 300 °C, and the flow rate was 3 L/min (nitrogen). Data acquisition occurred in positive ionization mode. […]

[2] = target: purified human recombinant DPP-IV enzyme (Homo sapiens, UniProt P27487); conditions: read-out: IC50, in vitro on the DPP-IV enzyme; cited from earlier work
[3] = untargeted HPLC–Chip–MS/MS, × = detected
[4] = differentiated Caco-2, AP to BL, mixture with P3 and P5, each 500 μM in AP, 37 °C
[5] = differentiated Caco-2, AP to BL, mixture with P3 and P5, each 500 μM in AP, 37 °C, mean ± sd
[6] = differentiated Caco-2, AP to BL, peptide alone, 500 μM in AP, 37 °C, AP pH 6.0, BL pH 7.4
[7] = differentiated Caco-2, AP to BL, peptide alone, 500 μM in AP, 37 °C, AP pH 6.0, BL pH 7.4, mean ± sd
[8] = differentiated Caco-2 on Transwell, AP to BL, peptide alone, 500 μM in AP, 37 °C, BL sampled 15–120 min, HPLC–Chip–MS/MS MRM, mean ± sd, three independent experiments

Chain of DPP-IV (P27487 whole entry): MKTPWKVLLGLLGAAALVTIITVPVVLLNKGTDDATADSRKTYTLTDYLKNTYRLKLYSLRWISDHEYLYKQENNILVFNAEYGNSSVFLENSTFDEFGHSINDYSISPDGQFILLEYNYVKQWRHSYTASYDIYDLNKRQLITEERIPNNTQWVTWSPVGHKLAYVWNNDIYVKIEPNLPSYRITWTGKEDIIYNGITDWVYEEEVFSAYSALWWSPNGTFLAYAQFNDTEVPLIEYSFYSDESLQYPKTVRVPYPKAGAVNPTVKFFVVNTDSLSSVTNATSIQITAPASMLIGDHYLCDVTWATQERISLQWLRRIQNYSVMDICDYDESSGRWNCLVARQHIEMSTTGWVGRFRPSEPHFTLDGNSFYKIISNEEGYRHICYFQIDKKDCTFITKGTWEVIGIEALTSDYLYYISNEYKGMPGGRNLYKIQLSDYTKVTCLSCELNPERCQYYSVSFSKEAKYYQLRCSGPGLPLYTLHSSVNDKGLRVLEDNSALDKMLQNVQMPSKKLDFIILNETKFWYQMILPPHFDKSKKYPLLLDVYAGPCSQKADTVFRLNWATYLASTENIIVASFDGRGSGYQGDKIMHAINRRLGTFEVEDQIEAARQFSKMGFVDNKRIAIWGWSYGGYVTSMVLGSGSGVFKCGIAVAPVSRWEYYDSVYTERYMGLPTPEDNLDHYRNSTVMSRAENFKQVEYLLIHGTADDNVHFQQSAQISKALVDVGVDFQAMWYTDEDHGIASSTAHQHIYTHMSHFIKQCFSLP
Chain of purified human recombinant DPP-IV enzyme (P27487 whole entry): as above

Substance | detected at the AP side, P7 tested as individual species (alone) ([1]; AP solutions of differentiated Caco-2 at the end of the transport experiment, untargeted HPLC–Chip–MS/MS, × = detected) | detected at the AP side, P7 tested within a mixture [1, 3] | fold higher amount in BL when tested alone than in the mixture ([1]; after 60 min of incubation) | amount in the BL compartment after 60 min, P7 in the mixture [1, 4] | amount in the BL compartment after 60 min, P7 in the mixture [1, 5] | absorbed amount after 2 h, P7 in the mixture [1, 4] | absorbed amount after 2 h, P7 in the mixture [1, 5] | lag period for transport, P7 in a mixture ([1]; differentiated Caco-2, AP to BL, mixture with P3 and P5, each 500 μM in AP, AP pH 6.0, BL pH 7.4, 37 °C) | amount in the BL compartment after 60 min, peptide alone [1, 6] | amount in the BL compartment after 60 min, peptide alone [1, 7] | rate of transport, P7 in a mixture ([1]; differentiated Caco-2 on Transwell, AP to BL, mixture with P3 and P5, each 500 μM in AP, AP pH 6.0, BL pH 7.4, 37 °C, BL sampled 15–120 min, HPLC–Chip–MS/MS MRM, mean ± sd, three independent experiments) | rate of transport, peptide alone [1, 8] | hydrolysis of P7 by DPP-IV (formation of LTFPG) (DPP-IV) | IC50 [2] | lag period for transport, peptide alone ([1]; differentiated Caco-2, AP to BL, peptide alone, 500 μM in AP, AP pH 6.0, BL pH 7.4, 37 °C) | transport in the presence of wortmannin ([1]; mature Caco-2 cells, wortmannin, inhibitor of the transcellular passage)
LTFPGSAED [P7] | × | × | about 4 fold | 0.064 nmol | 0.06 ± 0.003 µg | 0.235 nmol | 0.22 ± 0.5 µg | 27.7 min and 27 min | 0.278 nmol | 0.26 ± 0.02 µg | 1.98 ± 0.21 ng mL^–1 min^–1 | 4.2 ± 0.6 ng mL^–1 min^–1 | subjected to DPP-IV hydrolysis | 228 µM | – | –
LTFPG [LTFPG] | – | × | – | – | – | – | – | – | 0.412 nmol | 0.22 ± 0.003 µg | – | 3.7 ± 0.8 ng mL^–1 min^–1 | clearly detectable after 2 h of incubation | – | without a lag period | transported also in the presence of wortmannin
